ChEMBL document CHEMBL4507276 (2021)

Columns and labels:
Conditions in all cases: Compound concentration 1000.0 nM
[1] = target: AP2-associated protein kinase 1 (Homo sapiens) (UniProt Q2M2I8)
[2] = target: Activin receptor type-2A (Homo sapiens) (UniProt P27037)
[3] = target: Cyclin-dependent kinase 8 (Homo sapiens) (UniProt P49336)
[4] = target: Casein kinase I isoform gamma-1 (Homo sapiens) (UniProt Q9HCP0)
[5] = target: Death-associated protein kinase 1 (Homo sapiens) (UniProt P53355)
[6] = target: Dual specificity tyrosine-phosphorylation-regulated kinase 2 (Homo sapiens) (UniProt Q92630)
[7] = target: Ephrin type-A receptor 4 (Homo sapiens) (UniProt P54764)
[8] = target: T1, Ephrin type-B receptor 4 (Homo sapiens) (UniProt P54760)
T1 sequence (whole entry): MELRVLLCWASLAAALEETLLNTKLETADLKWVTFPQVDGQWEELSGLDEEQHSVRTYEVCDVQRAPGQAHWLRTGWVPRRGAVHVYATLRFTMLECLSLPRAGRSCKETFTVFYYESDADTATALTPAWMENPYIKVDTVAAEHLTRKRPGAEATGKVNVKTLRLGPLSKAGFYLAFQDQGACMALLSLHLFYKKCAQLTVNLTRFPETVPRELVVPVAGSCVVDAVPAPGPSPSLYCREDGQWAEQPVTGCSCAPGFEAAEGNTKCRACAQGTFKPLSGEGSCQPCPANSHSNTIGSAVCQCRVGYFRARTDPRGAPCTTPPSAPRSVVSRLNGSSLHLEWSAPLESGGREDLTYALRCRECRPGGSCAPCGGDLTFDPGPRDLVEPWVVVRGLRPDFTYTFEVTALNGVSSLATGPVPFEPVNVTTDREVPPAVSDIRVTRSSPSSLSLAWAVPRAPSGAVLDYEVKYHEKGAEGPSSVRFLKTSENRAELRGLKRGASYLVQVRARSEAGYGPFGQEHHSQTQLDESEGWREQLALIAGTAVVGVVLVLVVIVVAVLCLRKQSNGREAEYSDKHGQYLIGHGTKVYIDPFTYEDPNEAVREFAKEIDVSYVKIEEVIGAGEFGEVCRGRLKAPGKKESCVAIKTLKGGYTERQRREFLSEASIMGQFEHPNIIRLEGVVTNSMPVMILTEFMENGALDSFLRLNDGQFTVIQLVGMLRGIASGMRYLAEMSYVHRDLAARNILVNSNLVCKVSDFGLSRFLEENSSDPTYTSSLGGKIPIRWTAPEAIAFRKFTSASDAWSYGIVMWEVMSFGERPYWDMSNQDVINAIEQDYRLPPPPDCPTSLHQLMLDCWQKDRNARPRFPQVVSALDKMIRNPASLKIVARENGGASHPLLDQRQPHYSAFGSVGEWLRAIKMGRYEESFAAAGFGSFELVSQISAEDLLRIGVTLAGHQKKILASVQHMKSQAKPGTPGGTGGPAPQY

[9] = target: Serine/threonine-protein kinase STK11 (Homo sapiens) (UniProt Q15831)
[10] = target: Leukocyte tyrosine kinase receptor (Homo sapiens) (UniProt P29376)
[11] = target: Serine/threonine-protein kinase Nek10 (Homo sapiens) (UniProt Q6ZWH5)
[12] = test system: Phosphatidylinositol 4,5-bisphosphate 3-kinase catalytic subunit alpha isoform (Homo sapiens), P42336 [Q546K]
[13] = target: Serine/threonine-protein kinase pim-1 (Homo sapiens) (UniProt P11309)
[14] = test system: Proto-oncogene tyrosine-protein kinase receptor Ret (Homo sapiens), P07949 [V804M]
[15] = target: Ribosomal protein S6 kinase alpha-2 (Homo sapiens) (UniProt Q15349)
[16] = target: Serine/threonine-protein kinase SIK1 (Homo sapiens) (UniProt P57059)
[17] = target: STE20-like serine/threonine-protein kinase (Homo sapiens) (UniProt Q9H2G2)
[18] = target: T2, Dual specificity protein kinase TTK (Homo sapiens) (UniProt P33981)
T2 sequence (whole entry): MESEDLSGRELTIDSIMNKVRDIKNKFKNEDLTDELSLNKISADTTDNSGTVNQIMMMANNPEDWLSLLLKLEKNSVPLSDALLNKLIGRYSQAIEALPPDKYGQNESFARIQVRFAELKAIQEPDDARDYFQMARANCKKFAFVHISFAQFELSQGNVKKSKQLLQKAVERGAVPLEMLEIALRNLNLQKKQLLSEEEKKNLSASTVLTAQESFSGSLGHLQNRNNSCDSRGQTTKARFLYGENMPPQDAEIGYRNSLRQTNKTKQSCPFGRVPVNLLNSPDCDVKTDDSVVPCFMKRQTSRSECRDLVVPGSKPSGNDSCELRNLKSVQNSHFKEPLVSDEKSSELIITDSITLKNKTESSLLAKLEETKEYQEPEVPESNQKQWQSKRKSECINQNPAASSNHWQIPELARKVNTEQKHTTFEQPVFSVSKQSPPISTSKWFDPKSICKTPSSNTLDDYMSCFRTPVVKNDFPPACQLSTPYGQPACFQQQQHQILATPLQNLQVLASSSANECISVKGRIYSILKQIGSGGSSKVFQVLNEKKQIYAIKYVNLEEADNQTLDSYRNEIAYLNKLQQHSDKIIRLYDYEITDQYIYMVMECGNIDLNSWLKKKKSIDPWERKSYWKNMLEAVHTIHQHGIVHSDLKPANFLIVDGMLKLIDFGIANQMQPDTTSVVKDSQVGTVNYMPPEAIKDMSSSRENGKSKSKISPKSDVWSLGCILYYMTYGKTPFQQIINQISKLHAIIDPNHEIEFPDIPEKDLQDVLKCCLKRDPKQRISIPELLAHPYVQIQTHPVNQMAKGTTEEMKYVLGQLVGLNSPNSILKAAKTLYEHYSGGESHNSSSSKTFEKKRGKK

[19] = target: Serine/threonine-protein kinase 32B (Homo sapiens) (UniProt Q9NY57)
[20] = target: Mitogen-activated protein kinase kinase kinase 20 (Homo sapiens) (UniProt Q9NYL2)

Measured: residual activity

Chain of Activin receptor type-2A (Homo sapiens) (P27037 whole entry): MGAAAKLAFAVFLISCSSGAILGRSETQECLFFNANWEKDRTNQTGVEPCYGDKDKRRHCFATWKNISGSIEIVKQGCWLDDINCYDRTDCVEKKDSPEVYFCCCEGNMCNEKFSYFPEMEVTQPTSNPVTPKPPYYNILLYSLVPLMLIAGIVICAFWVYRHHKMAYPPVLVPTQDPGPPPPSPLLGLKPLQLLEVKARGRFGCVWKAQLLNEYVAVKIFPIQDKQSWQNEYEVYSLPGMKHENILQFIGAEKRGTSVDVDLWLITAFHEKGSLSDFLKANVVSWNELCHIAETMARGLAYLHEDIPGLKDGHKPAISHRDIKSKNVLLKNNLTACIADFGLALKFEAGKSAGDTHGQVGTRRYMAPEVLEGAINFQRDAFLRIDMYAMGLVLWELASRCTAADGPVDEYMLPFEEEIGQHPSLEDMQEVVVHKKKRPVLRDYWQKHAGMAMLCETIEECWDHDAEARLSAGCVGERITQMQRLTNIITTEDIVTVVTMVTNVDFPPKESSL
Chain of Serine/threonine-protein kinase Nek10 (Homo sapiens) (Q6ZWH5 whole entry, canonical isoform): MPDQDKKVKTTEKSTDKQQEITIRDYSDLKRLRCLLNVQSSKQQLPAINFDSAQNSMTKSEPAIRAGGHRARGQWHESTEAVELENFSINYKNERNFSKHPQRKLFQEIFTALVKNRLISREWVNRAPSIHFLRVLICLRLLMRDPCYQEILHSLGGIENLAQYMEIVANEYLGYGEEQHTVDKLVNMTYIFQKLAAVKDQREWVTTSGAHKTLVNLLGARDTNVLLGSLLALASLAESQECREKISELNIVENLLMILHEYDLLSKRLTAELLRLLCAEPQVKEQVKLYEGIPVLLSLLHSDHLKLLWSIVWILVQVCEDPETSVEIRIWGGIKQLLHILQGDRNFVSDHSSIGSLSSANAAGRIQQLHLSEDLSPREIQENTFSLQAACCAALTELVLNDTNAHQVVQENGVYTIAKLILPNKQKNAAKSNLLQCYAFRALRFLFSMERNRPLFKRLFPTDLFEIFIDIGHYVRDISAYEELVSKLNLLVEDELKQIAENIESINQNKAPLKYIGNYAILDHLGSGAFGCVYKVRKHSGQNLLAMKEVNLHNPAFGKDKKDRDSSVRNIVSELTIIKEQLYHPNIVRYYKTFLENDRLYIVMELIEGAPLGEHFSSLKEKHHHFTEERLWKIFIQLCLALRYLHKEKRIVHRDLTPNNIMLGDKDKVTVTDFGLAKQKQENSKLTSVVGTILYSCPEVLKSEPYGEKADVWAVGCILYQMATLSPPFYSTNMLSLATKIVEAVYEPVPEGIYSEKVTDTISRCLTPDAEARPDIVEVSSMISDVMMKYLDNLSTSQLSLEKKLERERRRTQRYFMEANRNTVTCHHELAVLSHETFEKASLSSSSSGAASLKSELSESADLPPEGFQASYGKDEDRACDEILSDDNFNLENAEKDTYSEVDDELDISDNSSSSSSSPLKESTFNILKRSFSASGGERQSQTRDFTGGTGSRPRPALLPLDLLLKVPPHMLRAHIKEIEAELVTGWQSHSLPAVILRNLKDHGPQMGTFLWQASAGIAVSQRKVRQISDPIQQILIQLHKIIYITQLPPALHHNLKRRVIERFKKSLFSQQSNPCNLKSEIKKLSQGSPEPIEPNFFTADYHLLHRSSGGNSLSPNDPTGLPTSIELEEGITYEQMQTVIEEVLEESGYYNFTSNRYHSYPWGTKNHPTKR
Chain of Casein kinase I isoform gamma-1 (Homo sapiens) (Q9HCP0 whole entry, looked up, canonical isoform): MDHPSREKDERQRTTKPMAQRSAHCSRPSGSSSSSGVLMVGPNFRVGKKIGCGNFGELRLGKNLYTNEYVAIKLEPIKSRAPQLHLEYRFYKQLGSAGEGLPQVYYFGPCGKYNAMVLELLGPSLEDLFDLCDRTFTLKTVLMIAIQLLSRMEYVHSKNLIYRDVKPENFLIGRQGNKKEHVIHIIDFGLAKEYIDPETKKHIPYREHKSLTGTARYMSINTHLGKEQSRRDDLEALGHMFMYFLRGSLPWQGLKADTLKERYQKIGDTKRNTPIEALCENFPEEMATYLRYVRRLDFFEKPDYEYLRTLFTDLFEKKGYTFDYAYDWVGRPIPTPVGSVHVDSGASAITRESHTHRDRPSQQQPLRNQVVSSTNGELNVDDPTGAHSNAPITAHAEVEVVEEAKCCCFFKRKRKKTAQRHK
Chain of Serine/threonine-protein kinase SIK1 (Homo sapiens) (P57059 whole entry): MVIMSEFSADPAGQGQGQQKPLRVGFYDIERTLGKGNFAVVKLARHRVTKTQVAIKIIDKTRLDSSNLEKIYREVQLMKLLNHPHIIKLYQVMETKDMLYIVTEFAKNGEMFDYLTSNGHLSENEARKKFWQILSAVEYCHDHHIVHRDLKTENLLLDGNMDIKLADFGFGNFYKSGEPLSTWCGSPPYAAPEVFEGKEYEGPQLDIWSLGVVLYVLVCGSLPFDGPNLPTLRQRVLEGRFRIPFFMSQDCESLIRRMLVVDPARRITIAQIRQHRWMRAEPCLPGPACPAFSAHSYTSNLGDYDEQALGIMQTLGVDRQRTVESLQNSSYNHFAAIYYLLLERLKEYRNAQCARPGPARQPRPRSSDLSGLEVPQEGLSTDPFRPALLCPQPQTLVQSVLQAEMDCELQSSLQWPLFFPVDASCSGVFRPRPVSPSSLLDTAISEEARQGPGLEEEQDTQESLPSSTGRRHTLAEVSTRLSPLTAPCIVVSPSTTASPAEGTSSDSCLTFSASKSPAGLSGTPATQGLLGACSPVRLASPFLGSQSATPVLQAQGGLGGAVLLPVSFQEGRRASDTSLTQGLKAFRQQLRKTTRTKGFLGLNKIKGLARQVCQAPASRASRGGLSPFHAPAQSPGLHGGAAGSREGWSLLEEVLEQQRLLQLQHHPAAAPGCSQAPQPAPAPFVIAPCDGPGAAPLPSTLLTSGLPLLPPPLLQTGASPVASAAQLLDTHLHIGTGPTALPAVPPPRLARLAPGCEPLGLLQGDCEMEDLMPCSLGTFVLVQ
Chain of Serine/threonine-protein kinase STK11 (Homo sapiens) (Q15831 whole entry): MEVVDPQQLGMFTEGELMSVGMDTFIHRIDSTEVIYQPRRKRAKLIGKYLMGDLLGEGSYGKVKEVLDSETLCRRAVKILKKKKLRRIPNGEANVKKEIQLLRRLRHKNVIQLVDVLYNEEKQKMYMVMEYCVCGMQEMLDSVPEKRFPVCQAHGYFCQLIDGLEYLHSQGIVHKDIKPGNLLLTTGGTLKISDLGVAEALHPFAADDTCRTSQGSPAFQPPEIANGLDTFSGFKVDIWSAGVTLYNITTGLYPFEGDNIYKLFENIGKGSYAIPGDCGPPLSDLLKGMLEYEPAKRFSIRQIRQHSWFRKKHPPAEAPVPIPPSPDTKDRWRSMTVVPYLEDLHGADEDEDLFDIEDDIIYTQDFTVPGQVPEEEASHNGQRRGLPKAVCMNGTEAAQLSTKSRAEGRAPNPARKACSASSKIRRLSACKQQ
Chain of Mitogen-activated protein kinase kinase kinase 20 (Homo sapiens) (Q9NYL2 2-800 limits assumed): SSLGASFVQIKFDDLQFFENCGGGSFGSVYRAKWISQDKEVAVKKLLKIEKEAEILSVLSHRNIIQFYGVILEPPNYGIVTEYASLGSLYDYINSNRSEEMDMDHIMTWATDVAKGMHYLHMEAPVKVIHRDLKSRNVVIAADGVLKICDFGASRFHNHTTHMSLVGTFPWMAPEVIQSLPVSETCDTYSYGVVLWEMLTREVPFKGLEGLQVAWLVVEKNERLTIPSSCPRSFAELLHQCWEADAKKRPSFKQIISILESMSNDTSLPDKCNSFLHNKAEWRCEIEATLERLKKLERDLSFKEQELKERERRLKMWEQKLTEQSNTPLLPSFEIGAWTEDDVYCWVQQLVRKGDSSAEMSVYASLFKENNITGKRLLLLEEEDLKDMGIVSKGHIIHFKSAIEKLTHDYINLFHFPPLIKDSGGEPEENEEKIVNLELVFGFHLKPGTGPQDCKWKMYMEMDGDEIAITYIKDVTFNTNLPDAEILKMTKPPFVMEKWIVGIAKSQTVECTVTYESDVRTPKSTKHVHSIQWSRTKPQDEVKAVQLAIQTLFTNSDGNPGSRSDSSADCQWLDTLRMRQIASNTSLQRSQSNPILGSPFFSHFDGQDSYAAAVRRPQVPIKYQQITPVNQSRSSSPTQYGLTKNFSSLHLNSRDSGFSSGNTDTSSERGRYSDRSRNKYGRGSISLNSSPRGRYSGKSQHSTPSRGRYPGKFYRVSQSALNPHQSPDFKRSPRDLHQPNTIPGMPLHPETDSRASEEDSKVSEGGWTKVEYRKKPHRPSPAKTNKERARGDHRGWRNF
Chain of Dual specificity tyrosine-phosphorylation-regulated kinase 2 (Homo sapiens) (Q92630 whole entry): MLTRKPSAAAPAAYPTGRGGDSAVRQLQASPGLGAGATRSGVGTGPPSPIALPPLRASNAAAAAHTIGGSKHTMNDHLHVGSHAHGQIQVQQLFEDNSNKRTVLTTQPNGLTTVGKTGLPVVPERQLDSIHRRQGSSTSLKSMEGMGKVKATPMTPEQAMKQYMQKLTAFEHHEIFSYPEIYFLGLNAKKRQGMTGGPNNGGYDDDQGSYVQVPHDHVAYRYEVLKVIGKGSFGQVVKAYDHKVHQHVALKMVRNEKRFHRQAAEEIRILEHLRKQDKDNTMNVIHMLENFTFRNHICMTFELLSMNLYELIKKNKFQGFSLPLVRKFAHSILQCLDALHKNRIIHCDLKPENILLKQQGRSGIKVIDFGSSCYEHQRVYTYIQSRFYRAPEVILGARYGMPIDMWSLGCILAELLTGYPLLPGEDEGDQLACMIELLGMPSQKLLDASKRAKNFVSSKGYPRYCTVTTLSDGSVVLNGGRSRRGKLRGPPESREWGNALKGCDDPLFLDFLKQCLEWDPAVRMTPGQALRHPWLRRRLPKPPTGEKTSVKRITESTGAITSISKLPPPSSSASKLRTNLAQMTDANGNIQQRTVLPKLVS
Chain of Serine/threonine-protein kinase pim-1 (Homo sapiens) (P11309 whole entry, looked up): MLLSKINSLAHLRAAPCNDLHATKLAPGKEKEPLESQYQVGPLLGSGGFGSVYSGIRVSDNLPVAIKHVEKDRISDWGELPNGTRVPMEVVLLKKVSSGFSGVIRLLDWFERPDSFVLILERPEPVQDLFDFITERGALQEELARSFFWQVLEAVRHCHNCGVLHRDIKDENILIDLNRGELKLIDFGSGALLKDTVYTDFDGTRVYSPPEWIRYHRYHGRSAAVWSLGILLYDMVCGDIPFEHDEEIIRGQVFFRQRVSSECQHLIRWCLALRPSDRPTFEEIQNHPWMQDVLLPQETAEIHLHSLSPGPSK

CN(C)C(=O)Cn1cc(-c2nc(C3(c4ccc(-c5cnc(N)nc5)cc4)CC3)no2)cn1 [BI 0153]
inactive: [1] 100% | [2] 84% | [3] 100% | [4] 90% | [5] 100% | [6] 81% | [7] 100% | [8] 100% | [9] 100% | [10] 90% | [11] 99% | [12] 100% | [13] 100% | [14] 100% | [15] 100% | [16] 86% | [17] 77% | [18] 100% | [19] 100% | [20] 92%

CN(C)C(=O)Cn1cc(-c2nc([C@@](C)(c3ccc(-c4cnc(N)nc4)cc3)C3CC3)no2)cn1 [BI 665915]
inactive: [1] 100% | [2] 81% | [3] 89% | [4] 100% | [5] 82% | [6] 89% | [7] 100% | [8] 100% | [9] 77% | [10] 89% | [11] 97% | [12] 95% | [13] 100% | [14] 97% | [15] 85% | [16] 52% | [17] 94% | [18] 100% | [19] 100% | [20] 80%
